In patent publication US20050154066A1, “Antiaging composition” (KANEKA CORPORATION, priority 2004, published 2005):

Columns and labels:
[1] = in vitro; cited from earlier work
[2] = tested on: Aging-accelerated model mice (SAMP1); assay: Aging preventing (retarding) effect in aging-accelerated model mice, aging degree score; format: in vivo; conditions: SAMP1 female mice, about 150 to 250 mg/kg/day; for aging degree score (increase): feed containing 0.2% test substance, versus control feed, FIG. 1 / FIG. 2
Excerpt: In evaluating such antiaging effects, for example, aging-accelerated model mice, can be used as an in vivo evaluation model. This mouse is a model mouse discovered and bred at Kyoto University, Japan, which develops the state of aging early and markedly.
Aging-accelerated model mice (SAMP1, 3-week-old females) were allowed free access to a feed (CE-2, product of CLEA Japan, Inc.) containing 0.2% reduced coenzyme Q10 (containing about 1% of oxidized coenzyme Q10) obtained in Production Example 1, and the aging degree of each mouse was quantified with time according to the aging degree score mentioned below. The dose of reduced coenzyme Q10 as estimated from the feed consumption and animal weight corresponded to about 150 to 250 mg/kg/day. A control group was given the feed alone (CE-2, product of CLEA Japan, Inc.).
The aging-accelerated model mice used were model mice discovered and bred at Kyoto University which develop the state of aging early and markedly. These mice show the state of aging quite similar to that of humans, and are useful model animals for in vivo testing for antiaging effects. The aging degree scoring system employed was the scoring system established by the Council for SAM Research. Thus, scores of 0 to 4 were given to each animal with respect to each of the following 11 items: 1: decrease in activity (searching behavior), 2: decrease in passivity (pinching escaping behavior), 3: loss of hair luster, 4: roughening of hair, 5: loss of hair, 6: skin ulcer, 7: periophthalmic lesions (blepharitis and periophthalmic erosion), 8: corneal clouding, 9: corneal ulcer, 10: cataract, 11: increased anterior or backward spinal curvature. The conditions found in a group of young mice about 3 months of age were taken as standards and given the score 0 (zero). Thus, a higher score indicates more advanced aging.
The test of Example 1 was performed in the same manner except that oxidized coenzyme Q10 was used in lieu of reduced coenzyme Q10. […]

rats = conditions: administered every day for 52 weeks at 1,200 mg/kg/day (Williams et al. 1999); cited from earlier work

SMILES | antioxidant activity [1] | aging degree score (increase) [2] | toxic effect (rats) | aging preventing effect compared with reduced coenzyme Q10 ([2]; feed, FIG. 2 vs FIG. 1)
COc1c(O)c(C)c(C/C=C(\C)CC/C=C(\C)CC/C=C(\C)CC/C=C(\C)CC/C=C(\C)CC/C=C(\C)CC/C=C(\C)CC/C=C(\C)CC/C=C(\C)CCC=C(C)C)c(O)c1OC [reduced coenzyme Q10] | shows antioxidant activity | distinctly prevented from increasing | – | –
COC1=C(OC)C(=O)C(C/C=C(\C)CC/C=C(\C)CC/C=C(\C)CC/C=C(\C)CC/C=C(\C)CC/C=C(\C)CC/C=C(\C)CC/C=C(\C)CC/C=C(\C)CCC=C(C)C)=C(C)C1=O [coenzyme Q10] | – | – | no toxic effect | –
COC1=C(OC)C(=O)C(C/C=C(\C)CC/C=C(\C)CC/C=C(\C)CC/C=C(\C)CC/C=C(\C)CC/C=C(\C)CC/C=C(\C)CC/C=C(\C)CC/C=C(\C)CCC=C(C)C)=C(C)C1=O [oxidized coenzyme Q10] | does not show antioxidant activity | suppressed to a certain extent | – | weak
